Reference: US20160046579A1, “THERAPEUTIC COMPOUNDS AND COMPOSITIONS” (AGIOS PHARMACEUTICALS, INC., priority 2013, published 2016)

Key:
Type in all cases: biochemical
wt PKR = wt PKR (Homo sapiens, UniProt P30613); assay: PKR Mutant Assay, dose response (AC50), wild type PKR enzyme; conditions: wild type PKR enzyme
Procedure: (§1) • PKR or PKR mutant enzyme solution was diluted in assay buffer. • 2 μL of test compound was added into wells first, and then 180 μL reaction mix was added. • Reactions mixture with test compound was assembled except for ADP, and plates were stored for 60 minutes at room temperature. • 20 uL ADP was added to start reaction at room temperature and reaction progress was measured as changes in absorbance at 340 nm wavelength at room temperature.
(§2) Test Compound Preparation: • Test compound stock was made at 100× concentration in 100% DMSO (10 mM) • 1 to 3 dilutions were made for 11 points (i.e. 50 μl of first concentration added to 100 μl 100% DMSO to yield 3.33 mM, 50 μl of this added to 100 μl DMSO to yield 1.11 mM, and so forth) • 1 to 100 dilution into assay (2 μl in 200 μl) yielded starting concentration of 100 μM, decreasing 3 fold for 11 points.

PKR R532W = PKR R532W (Homo sapiens, UniProt P30613, R532W); assay: PKR Mutant Assay, dose response (AC50), PKR R532W; conditions: PKR R532W mutant enzyme
PKR R532W, sequence (P30613 whole entry R532W): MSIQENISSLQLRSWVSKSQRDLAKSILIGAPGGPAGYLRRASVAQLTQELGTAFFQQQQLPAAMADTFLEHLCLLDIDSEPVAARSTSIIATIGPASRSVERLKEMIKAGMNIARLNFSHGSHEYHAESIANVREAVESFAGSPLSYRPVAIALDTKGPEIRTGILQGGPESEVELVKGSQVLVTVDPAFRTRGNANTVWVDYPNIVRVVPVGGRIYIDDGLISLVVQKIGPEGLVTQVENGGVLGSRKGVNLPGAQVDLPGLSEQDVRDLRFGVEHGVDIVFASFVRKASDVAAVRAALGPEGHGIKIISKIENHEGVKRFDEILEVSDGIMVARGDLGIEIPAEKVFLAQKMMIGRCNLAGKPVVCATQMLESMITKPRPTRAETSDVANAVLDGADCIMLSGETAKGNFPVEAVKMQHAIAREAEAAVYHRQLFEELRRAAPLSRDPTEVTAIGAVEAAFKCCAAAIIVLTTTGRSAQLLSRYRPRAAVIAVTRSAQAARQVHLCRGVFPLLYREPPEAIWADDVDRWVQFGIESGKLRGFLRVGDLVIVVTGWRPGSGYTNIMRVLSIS
Procedure: as §1, §2

PKR R510Q = PKR R510Q (Homo sapiens, UniProt P30613, R510Q); assay: PKR Mutant Assay, dose response (AC50), PKR R510Q; conditions: PKR R510Q mutant enzyme
PKR R510Q, sequence (P30613 whole entry R510Q): as the sequence (P30613 whole entry R532W) above, with R510Q, W532R counted along it
Procedure: as §1, §2

wt PKR, sequence (P30613 whole entry): as the sequence (P30613 whole entry R532W) above, with W532R counted along it

Question: Which AC50 (wt PKR) does the source give for CC(C)(O)CCCC1(O)CCN(C(=O)c2ccc(NS(=O)(=O)c3cccc4scnc34)cc2)CC1 [Compound 476] here?
Answer: Its AC50 is 1.01 to 10 µM.

Question: And the AC50 (PKR R532W)?
Answer: Its AC50 is 1.01 to 10 µM.

Question: With CCn1cc(CC2(O)CCN(C(=O)c3ccc(NS(=O)(=O)c4cccc5nccnc45)cc3)CC2)cn1 [Compound 503] as the compound, how does the AC50 (wt PKR) read?
Answer: The AC50 was 0.101 to 1 µM.

Question: And the AC50 (PKR R510Q)?
Answer: The AC50 was greater than 10 µM.

Question: And the AC50 (PKR R532W)?
Answer: The AC50 was 0.101 to 1 µM.

Question: Which AC50 (wt PKR) does the source give for CCS(=O)(=O)CC1(O)CCN(C(=O)c2ccc(NS(=O)(=O)c3cccc4nccnc34)cc2)CC1 [Compound 490] here?
Answer: The AC50 was 1.01 to 10 µM.

Question: What about the AC50 (PKR R510Q) of the same compound?
Answer: Its AC50 is greater than 10 µM.

Question: What about the AC50 (PKR R532W) of the same compound?
Answer: The AC50 was 1.01 to 10 µM.

Question: How did the AC50 (PKR R510Q) turn out when CC(C)CC1(O)CCN(C(=O)c2ccc(NS(=O)(=O)c3cnc(O)c4cccnc34)cc2)CC1 [Compound 416] was run?
Answer: Its AC50 is greater than 10 µM.

Question: Cn1ccc(C2(O)CCN(C(=O)c3ccc(NS(=O)(=O)c4cccc5scnc45)cc3)CC2)n1 [Compound 450] was tested. Which AC50 (wt PKR) did it give?
Answer: Its AC50 is greater than 10 µM.

Question: And the AC50 (PKR R510Q)?
Answer: The AC50 was greater than 10 µM.

Question: What about the AC50 (PKR R532W) of the same compound?
Answer: Its AC50 is greater than 10 µM.

Question: CS(=O)(=O)CC1(O)CCN(C(=O)c2ccc(NS(=O)(=O)c3cccc4nccnc34)cc2)CC1 [Compound 474] was tested. Which AC50 (wt PKR) did it give?
Answer: Its AC50 is 0.101 to 1 µM.

Question: What about the AC50 (PKR R510Q) of the same compound?
Answer: Its AC50 is 1.01 to 10 µM.

Question: What about the AC50 (PKR R532W) of the same compound?
Answer: Its AC50 is 0.101 to 1 µM.

Question: How did the AC50 (wt PKR) turn out when CC(F)(F)CCC1(O)CCN(C(=O)c2ccc(NS(=O)(=O)c3cccc4scnc34)cc2C#N)CC1 [Compound 477, N-(3-cyano-4-(4-(3,3-difluorobutyl)-4-hydroxypiperidine-1-carbonyl)phenyl)benzo[d]thiazole-4-sulfonamide] was run?
Answer: Its AC50 is 0.101 to 1 µM.

Question: And the AC50 (PKR R510Q)?
Answer: The AC50 was 1.01 to 10 µM.

Question: And the AC50 (PKR R532W)?
Answer: The AC50 was 0.101 to 1 µM.

Question: Which AC50 (wt PKR) does the source give for CS(=O)(=O)CCC1(O)CCN(C(=O)c2ccc(NS(=O)(=O)c3cccc4nccnc34)cc2)CC1 [Compound 470] here?
Answer: The AC50 was 1.01 to 10 µM.

Question: And the AC50 (PKR R510Q)?
Answer: The AC50 was greater than 10 µM.

Question: What about the AC50 (PKR R532W) of the same compound?
Answer: Its AC50 is 1.01 to 10 µM.

Question: Which results are given for CCS(=O)(=O)CC1(O)CCN(C(=O)c2ccc(NS(=O)(=O)c3cccc4scnc34)cc2)CC1 [Compound 484]?
Answer: AC50 (wt PKR): 1.01 to 10 µM; AC50 (PKR R510Q): > 10 µM; AC50 (PKR R532W): 1.01 to 10 µM

Question: What does the source list for CN1CCC(C2(CO)CCN(C(=O)c3ccc(NS(=O)(=O)c4cccc5scnc45)cc3)CC2)C1=O (stereo not drawn) [Compound 487]?
Answer: AC50 (wt PKR): 1.01 to 10 µM; AC50 (PKR R510Q): 1.01 to 10 µM; AC50 (PKR R532W): 1.01 to 10 µM

Question: Which results are given for O=C1NCCC1CC1(O)CCN(C(=O)c2ccc(NS(=O)(=O)c3cccc4scnc34)cc2)CC1 (stereo not drawn) [Compound 495]?
Answer: AC50 (wt PKR): 1.01 to 10 µM; AC50 (PKR R510Q): > 10 µM; AC50 (PKR R532W): 1.01 to 10 µM

Question: Which AC50 (wt PKR) does the source give for Nc1nc(CC2(O)CCN(C(=O)c3ccc(NS(=O)(=O)c4cccc5scnc45)cc3)CC2)cs1 [Compound 485] here?
Answer: Its AC50 is 1.01 to 10 µM.

Question: What about the AC50 (PKR R510Q) of the same compound?
Answer: The AC50 was greater than 10 µM.

Question: What about the AC50 (PKR R532W) of the same compound?
Answer: The AC50 was 1.01 to 10 µM.

Question: With CS(=O)(=O)CCC1(O)CCN(C(=O)c2ccc(NS(=O)(=O)c3cccc4scnc34)cc2)CC1 [Compound 466] as the compound, how does the AC50 (wt PKR) read?
Answer: The AC50 was 1.01 to 10 µM.

Question: What about the AC50 (PKR R510Q) of the same compound?
Answer: Its AC50 is greater than 10 µM.

Question: And the AC50 (PKR R532W)?
Answer: The AC50 was greater than 10 µM.

Question: Which results are given for CN1CCC(CC2(O)CCN(C(=O)c3ccc(NS(=O)(=O)c4cccc5scnc45)cc3)CC2)C1=O (stereo not drawn) [Compound 488]?
Answer: AC50 (wt PKR): 1.01 to 10 µM; AC50 (PKR R510Q): > 10 µM; AC50 (PKR R532W): 0.101 to 1 µM

Question: Which AC50 (wt PKR) does the source give for O=C(c1ccc(NS(=O)(=O)c2cccc3scnc23)cc1)N1CCC(O)(c2ncc(Cl)s2)CC1 [Compound 509] here?
Answer: Its AC50 is 1.01 to 10 µM.

Question: What about the AC50 (PKR R510Q) of the same compound?
Answer: The AC50 was greater than 10 µM.

Question: What about the AC50 (PKR R532W) of the same compound?
Answer: The AC50 was 0.101 to 1 µM.

Question: Which AC50 (wt PKR) does the source give for CC(C)CC1(O)CCN(C(=O)c2ccc(NS(=O)(=O)c3cccc4ncc(O)nc34)cc2)CC1 [Compound 460] here?
Answer: The AC50 was greater than 10 µM.

Question: And the AC50 (PKR R510Q)?
Answer: The AC50 was greater than 10 µM.

Question: What about the AC50 (PKR R532W) of the same compound?
Answer: The AC50 was greater than 10 µM.

Question: With CC(C)(O)CCCC1(O)CCN(C(=O)c2ccc(NS(=O)(=O)c3cccc4nccnc34)cc2)CC1 [Compound 475] as the compound, how does the AC50 (wt PKR) read?
Answer: Its AC50 is greater than 10 µM.

Question: What about the AC50 (PKR R532W) of the same compound?
Answer: Its AC50 is greater than 10 µM.

Question: Cn1ccc(CC2(O)CCN(C(=O)c3ccc(NS(=O)(=O)c4cccc5nccnc45)cc3)CC2)n1 [Compound 507] was tested. Which AC50 (wt PKR) did it give?
Answer: The AC50 was 0.101 to 1 µM.

Question: What about the AC50 (PKR R510Q) of the same compound?
Answer: The AC50 was greater than 10 µM.

Question: What about the AC50 (PKR R532W) of the same compound?
Answer: The AC50 was 0.101 to 1 µM.

Question: How did the AC50 (PKR R510Q) turn out when CC(C)CC1(N)CCN(C(=O)c2ccc(NS(=O)(=O)c3cccc4scnc34)cc2)CC1 [Compound 529] was run?
Answer: The AC50 was 0.101 to 1 µM.

Question: What about the AC50 (PKR R532W) of the same compound?
Answer: The AC50 was 0.101 to 1 µM.

Question: With O=C(c1ccc(NS(=O)(=O)c2cccc3nccnc23)cc1)N1CCC(O)(Cc2nc(Cl)cs2)CC1 [Compound 494] as the compound, how does the AC50 (PKR R510Q) read?
Answer: The AC50 was 0.101 to 1 µM.

Question: CC(C)CC1(O)CCN(C(=O)c2ccc(NS(=O)(=O)c3cccc4cncnc34)cc2)CC1 [Compound 441] was tested. Which AC50 (wt PKR) did it give?
Answer: The AC50 was 0.101 to 1 µM.
